Data on 36 molecules can be found in patent US20120095024A1, “TOLUIDINE SULFONAMIDES AND THEIR USE” (Elara Pharmaceuticals GmbH, priority 2008, published 2012).

In this experiment the test system is MCF7 cells. The experiment can be described thus: Cell proliferation assay (ATPlite), MCF-7. It is filed as cell-based, human. To be noted: inhibition of cell proliferation, 72 h. The protocol: MCF-7 human breast adenocarcinoma cells and HL-60 acute promyelocytic leukaemia cells were obtained from ATCC (LGC Promochem). HG-1 multiple myeloma cells were obtained from Dr. D. Hose (DKFZ Heidelberg). The CellSensor® HRE-bla HCT116 cell line (colorectal carcinoma) was obtained from Invitrogen.
Cells were grown under humidified 95% air, 5% CO2 at 37° C. in Dulbecco's modified Eagle's medium (DMEM: MCF-7) or RPMI 1640 medium (RPMI: HL-60, HG-1) supplemented with 10% fetal bovine serum (FBS), 100 U/ml penicillin and 100 μg/ml streptomycin, 2 mM L-glutamine, and 2 ng/ml IL-6 (for the HG-1 cell line only). The HCT116 cell line was grown under the same atmospheric conditions in McCoy's 5A medium supplemented with 10% FBS and penicillin/streptomycin as above, in addition to blasticidin as a selection marker at a final concentration of 5 μg/ml.
Cell proliferation experiments were carried out in 96-well tissue culture plates with seeding of 2000 cells/well (MCF-7) or 1000 cells/well (HL-60, HG-1) in 100 μl of the relevant medium. Cells were subsequently incubated under the conditions mentioned for 24 h prior to addition of compounds.
For the determination of compound EC50 values, 10 μl compounds at 11× concentrations in 5.5% DMSO were added to the wells at various concentrations yielding a final constant percentage of 0.5% DMSO at the desired 1× compound concentration. As a positive control, cells were treated with 5.5% DMSO. The cells were then incubated for a further 72 h prior to the measurement.
To determine the degree of inhibition of cell proliferation, cells were treated with ATPlite solution according to the manufacturer's instructions (PerkinElmer, ATPlite 1-step Luminescence ATP Detection Assay System) and luciferase readout measured on an Envision HTS multilabel plate reader (PerkinElmer) in luminescence mode according to established protocols. Raw data were imported into an ActivityBase database (IDBS, ID Business Solutions) and EC50 values calculated using the IDBS program ActivityBase XE. Table 2A and 2B show the IC50 values obtained in the above-outlined cell proliferation assay for exemplary compounds of the invention.

Molecule `Cc1ccc(S(=O)(=O)Nc2cc(-c3cccc(C#N)n3)ccc2C)cc1` [Example 52, N-[5-(6-Cyano-pyridin-2-yl)-2-methyl-phenyl]-4-methyl-benzenesulfonamide] yielded a 50% effective concentration (EC50) (Homo sapiens) of 500 to 1000 nM.

Where the note is “Homo sapiens”, `Cc1ccc(S(=O)(=O)Nc2cc(-c3ccc(F)cn3)ccc2C)cc1` [Example 53, N-[5-(5-Fluoro-pyridin-2-yl)-2-methyl-phenyl]-4-methyl-benzenesulfonamide] registered an EC50 of less than 500 nM.

As to `CC(=O)c1ccc(-c2ccc(C)c(NS(=O)(=O)c3ccc(C)cc3)c2)nc1` [Example 54, N-[5-(5-Acetyl-pyridin-2-yl)-2-methyl-phenyl]-4-methyl-benzenesulfonamide], the EC50 (Homo sapiens) lay within 1000 to 10000 nM.

As to `Cc1ccc(S(=O)(=O)Nc2cc(-c3ccc([N+](=O)[O-])cn3)ccc2C)cc1` [Example 55, 4-Methyl-N-[2-methyl-5-(5-nitro-pyridin-2-yl)-phenyl]-benzenesulfonamide], the 50% effective concentration (EC50) (Homo sapiens) is less than 500 nM.

With `COc1ccc(S(=O)(=O)Nc2cc(-c3cccc(C#N)c3)ccc2C)cc1` [Example 57, N-(3′-Cyano-4-methyl-biphenyl-3-yl)-4-methoxy-benzenesulfonamide], under “Homo sapiens”, the EC50 was 500 to 1000 nM.

On to `COc1ccc(S(=O)(=O)Nc2cc(-c3ccccc3C#N)ccc2C)cc1` [Example 58, N-(2′-Cyano-4-methyl-biphenyl-3-yl)-4-methoxy-benzenesulfonamide], for which the EC50 (Homo sapiens) fell in the range of 500 to 1000 nM.

For `Cc1ccc(S(=O)(=O)Nc2cc(-c3sccc3C#N)ccc2C)cc1` [Example 59, N-[5-(3-Cyano-thiophen-2-yl)-2-methyl-phenyl]-4-methyl-benzenesulfonamide], the half-maximal effective concentration (EC50) (Homo sapiens) fell in the range of 500 to 1000 nM.

In the case of `COc1ccc(S(=O)(=O)Nc2cc(-c3ccc(C#N)nc3)ccc2C)cc1` [Example 61, N-[5-(6-Cyano-pyridin-3-yl)-2-methyl-phenyl]-4-methoxy-benzenesulfonamide], where the note is “Homo sapiens”, the EC50 was less than 500 nM.

Under “Homo sapiens”, `COc1ccc(S(=O)(=O)Nc2cc(-c3ccsc3C#N)ccc2C)cc1` [Example 62, N-[5-(2-Cyano-thiophen-3-yl)-2-methyl-phenyl]-4-methoxy-benzenesulfonamide] gave an EC50 of less than 500 nM.

With `Cc1ccc(S(=O)(=O)Nc2cc(-c3ncc(C#N)cn3)ccc2C)cc1` [Example 64, N-[5-(5-Cyano-pyrimidin-2-yl)-2-methyl-phenyl]-4-methyl-benzenesulfonamide], the EC50 (Homo sapiens) was in the range of 500 to 1000 nM.

Regarding `COc1ccc(S(=O)(=O)Nc2cc(-c3ccc(C#N)c(C#N)c3)ccc2C)cc1` [Example 65, N-(3′,4′-Dicyano-4-methyl-biphenyl-3-yl)-4-methoxy-benzenesulfonamide], the EC50 (Homo sapiens) was less than 500 nM.

As to `Cc1ccc(S(=O)(=O)Nc2cc(-c3cccc(N(C)C)n3)ccc2C)cc1` [Example 66, N-[5-(6-Dimethylamino-pyridin-2-yl)-2-methyl-phenyl]-4-methyl-benzenesulfonamide], where the note is “Homo sapiens”, the EC50 lay in the range of 500 to 1000 nM.

`Cc1ccc(S(=O)(=O)Nc2cc(-c3cc(C)cc(C)n3)ccc2C)cc1` [Example 67, N-[5-(4,6-Dimethyl-pyridin-2-yl)-2-methyl-phenyl]-4-methyl-benzenesulfonamide]: the concentration for a half-maximal effect (EC50) (Homo sapiens) was 1000 to 10000 nM.

In turn, `Cc1ccc(S(=O)(=O)Nc2cc(-c3cscc3C#N)ccc2C)cc1` [Example 69, N-[5-(4-Cyano-thiophen-3-yl)-2-methyl-phenyl]-4-methyl-benzenesulfonamide] registered a concentration for a half-maximal effect (EC50) (Homo sapiens) of less than 500 nM.

The molecule `Cc1ccc(S(=O)(=O)Nc2cc(-c3occc3C#N)ccc2C)cc1` [Example 70, N-[5-(3-Cyo-furan-2-yl)-2-methyl-phenyl]-4-methyl-benzenesulfonamide] gave an EC50 of less than 500 nM.

For the molecule `COc1ccc(S(=O)(=O)Nc2cc(-c3ccnc(C#N)c3)ccc2C)cc1` [Example 75, N-[5-(2-Cyano-pyridin-4-yl)-2-methyl-phenyl]-4-methoxy-benzenesulfonamide], for the setting “Homo sapiens”, the EC50 is 500 to 1000 nM.

For `Cc1ccc(S(=O)(=O)Nc2cc(-c3ccc([N+](=O)[O-])o3)ccc2C)cc1` [Example 76, 4-Methyl-N-[2-methyl-5-(5-nitro-furan-2-yl)-phenyl]-benzenesulfonamide], the EC50 (Homo sapiens) is less than 500 nM.

As to `Cc1ccc(-c2ccc(C#N)s2)cc1NS(=O)(=O)c1ccc(Cl)cc1` [Example 77, 4-Chloro-N-[5-(5-cyano-thiophen-2-yl)-2-methyl-phenyl]-benzenesulfonamide], the EC50 (Homo sapiens) was less than 500 nM.

`Cc1ccc(-c2ccc(C#N)s2)cc1NS(=O)(=O)c1ccc(C(F)(F)F)cc1` [Example 78, N-[5-(5-Cyano-thiophen-2-yl)-2-methyl-phenyl]-4-trifluoromethyl-benzenesulfonamide] showed an EC50 (Homo sapiens) of 500 to 1000 nM.

`Cc1ccc(-c2ccc(C#N)s2)cc1NS(=O)(=O)c1ccc(OC(F)(F)F)cc1` [Example 79, N-[5-(5-Cyano-thiophen-2-yl)-2-methyl-phenyl]-4-trifluoromethoxy-benzenesulfonamide] yielded an EC50 (Homo sapiens) of 1000 to 10000 nM.

The molecule `COc1ccc(-c2ccc(C)c(NS(=O)(=O)c3ccc(OC)cc3)c2)cc1` [Example 81, 4-Methoxy-N-(4′-methoxy-4-methyl-biphenyl-3-yl)-benzenesulfonamide] came in with a concentration for a half-maximal effect (EC50) (Homo sapiens) of less than 500 nM.

Regarding `COc1ccc(S(=O)(=O)Nc2cc(-c3ccc(SC)cc3)ccc2C)cc1` [Example 82, 4-Methoxy-N-(4-methyl-4′-methylsulfanyl-biphenyl-3-yl)-benzenesulfonamide], the 50% effective concentration (EC50) (Homo sapiens) is 1000 to 10000 nM.

Molecule `COc1ccc(S(=O)(=O)Nc2cc(-c3ccc(OC(F)(F)F)cc3)ccc2C)cc1` [Example 83, 4-Methoxy-N-(4-methyl-4′-trifluoromethoxy-biphenyl-3-yl)-benzenesulfonamide] displayed an EC50 (Homo sapiens) of 1000 to 10000 nM.

Regarding `C#Cc1ccc(-c2ccc(C)c(NS(=O)(=O)c3ccc(C)cc3)c2)cc1` [Example 84, N-(4′-Ethynyl-4-methyl-biphenyl-3-yl)-4-methyl-benzenesulfonamide], where the note is “Homo sapiens”, the EC50 fell in the range of 500 to 1000 nM.

Regarding `COc1ccc(S(=O)(=O)Nc2cc(-c3ccc(C#N)cc3)ccc2C)cc1F` [Example 85, N-(4′-Cyano-4-methyl-biphenyl-3-yl)-3-fluoro-4-methoxy-benzenesulfonamide], the EC50 (Homo sapiens) is less than 500 nM.

As for `Cc1ccc(-c2ccc(C#N)cc2)cc1NS(=O)(=O)c1ccc([N+](=O)[O-])cc1` [Example 86, N-(4′-Cyano-4-methyl-biphenyl-3-yl)-4-nitro-benzenesulfonamide], the EC50 (Homo sapiens) lay within 1000 to 10000 nM.

`Cc1ccc(-c2ccc(C#N)cc2)cc1NS(=O)(=O)c1ccc(N)cc1` [Example 87, 4-Amino-N-(4′-cyano-4-methyl-biphenyl-3-yl)-benzenesulfonamide]: the concentration giving a half-maximal response (EC50) (Homo sapiens) was less than 500 nM.

For the molecule `Cc1ccc(S(=O)(=O)Nc2cc(-c3ccc(C#N)cc3)ccc2C)cc1F` [Example 88, N-(4′-Cyano-4-methyl-biphenyl-3-yl)-3-fluoro-4-methyl-benzenesulfonamide], for the setting “Homo sapiens”, the concentration giving a half-maximal response (EC50) is less than 500 nM.

Molecule `COc1ccc(S(=O)(=O)Nc2cc(-c3ccc(C#N)c(OC)c3)ccc2C)cc1` [Example 89, N-(4′-Cyano-3′-methoxy-4-methyl-biphenyl-3-yl)-4-methoxy-benzenesulfonamide] registered an EC50 (Homo sapiens) of less than 500 nM.

Molecule `COc1ccc(S(=O)(=O)Nc2cc(-c3ccc(C#N)c(O)c3)ccc2C)cc1` [Example 90, N-(4′-Cyano-3′-hydroxy-4-methyl-biphenyl-3-yl)-4-methoxy-benzenesulfonamide] yielded a concentration for a half-maximal effect (EC50) (Homo sapiens) of less than 500 nM.

As for `Cc1ccc(-c2ccc(C#N)s2)cc1NS(=O)(=O)c1ccc(F)cc1` [Example 91, N-[5-(5-Cyano-thiophen-2-yl)-2-methyl-phenyl]-4-fluoro-benzenesulfonamide], the EC50 (Homo sapiens) was in the range of 500 to 1000 nM.

For the molecule `COc1ccc(S(=O)(=O)Nc2cc(-c3ccc(C#N)s3)ccc2C)cc1F` [Example 92, N-[5-(5-Cyano-thiophen-2-yl)-2-methyl-phenyl]-3-fluoro-4-methoxy-benzenesulfonamide], the EC50 (Homo sapiens) was less than 500 nM.

On to `Cc1ccc(-c2ccc(C#N)s2)cc1NS(=O)(=O)c1ccc(N)cc1` [Example 93, 4-Amino-N-[5-(5-cyano-thiophen-2-yl)-2-methyl-phenyl]-benzenesulfonamide], for which, under “Homo sapiens”, the EC50 was less than 500 nM.

Molecule `Cc1ccc(S(=O)(=O)Nc2cc(C)cc(-c3csc(C)c3)c2)cc1` [Example 94, 4-Methyl-N-[3-methyl-5-(5-methyl-thiophen-3-yl)-phenyl]-benzenesulfonamide] gave an EC50 (Homo sapiens) of less than 500 nM.

`Cc1ccc(-c2csc(C#N)c2)cc1NS(=O)(=O)c1ccc([N+](=O)[O-])cc1` [Example 96, N-(5-(5-cyanothiophen-3-yl)-2-methylphenyl)-4-nitrobenzenesulfonamide]: the concentration for a half-maximal effect (EC50) (Homo sapiens) lay in the range of 1000 to 10000 nM.

Where the note is “Homo sapiens”, `Cc1ccc(-c2ccc(C#N)cc2)cc1NS(=O)(=O)c1ccc(Cl)cc1` [Example 97, 4-chloro-N-(4′-cyano-4-methylbiphenyl-3-yl)benzenesulfonamide] registered an EC50 of less than 500 nM.
